Data: patent US20250360101A1, “OSTEOCLAST DIFFERENTIATION INHIBITOR CONTAINING UROLITHIN” (DAICEL CORPORATION, priority 2020, published 2025)

Key:
[1] = system: macrophages prepared by differentiation from the isolated mouse bone marrow-derived hematopoietic stem cells; assay: Osteoclast differentiation inhibition test (M-CSF/RANKL induction, TRAP staining) from macrophages; type: cell-based; settings: 10 μM; 3 days culture; ratio of TRAP-stained area to sample-free group (Comparative Example 3 = 100%)
Protocol: (§1) In the present Examples, statistical analysis was carried out using commercially available software (StatMate3, ATMS). Except for Example 3 and Comparative Example 3, Tukey's test was used for comparison in terms of the action and effect. In all tests, a significant difference was assumed at a P value of not more than 0.1%. In Example 3 and Comparative Example 3, Dunnett's test was used for comparison in terms of the action and effect. A significant difference was assumed at a P-value of not more than 1%.
Mouse femurs and tibias were removed, and a portion of about 2 mm was removed from each bone end by cutting. The long bones were placed in a 0.2-mL microtube, and centrifuged at 2000×g, followed by collecting bone marrow fluid. […]
The macrophages prepared by differentiation from the isolated mouse bone marrow-derived hematopoietic stem cells were plated on a 96-well plate at 4.0×10^4 cells/well. […] The total number of multinucleated osteoclasts having three or more nuclei present on each well was counted. The stained image was scanned using a scanner (EPSON, GT-X970, 800 pixels/inch), and the stained area was measured using image analysis software Image J. […]
The ratio of the stained area in each sample-addition group (Example 3) to the stained area in the sample-free group (Comparative Example 3) was calculated to determine the number of osteoclasts (relative value). […]

[2] = system: mouse bone marrow-derived hematopoietic stem cells; assay: Osteoclast differentiation inhibition test (M-CSF/RANKL induction, TRAP staining) from hematopoietic stem cells; type: cell-based; settings: for number of osteoclasts (relative value): 8 days culture, ratio of TRAP-stained area to sample-free group (Comparative Example = 100%); for Osteoclast differentiation (significance vs Comparative Example): Tukey's test, P not more than 0.1%
Protocol: as §1
Mouse femurs and tibias were removed, and a portion of about 2 mm was removed from each bone end by cutting. The long bones were placed in a 0.2-mL microtube, and centrifuged at 2000×g, followed by collecting bone marrow fluid. After suspending the bone marrow fluid in 4 ml of α-MEM medium (#. 11900-016, Gibco) supplemented with 10% FBS (JBS-011115), the resulting suspension was plated on a 6-cm dish. After incubating the plate at 37° C. under 5% CO2 for 24 hours, the medium was collected. The floating cells in the medium were isolated as hematopoietic stem cells.
The isolated mouse bone marrow-derived hematopoietic stem cells were plated on a 96-well plate at 4.0×10^4 cells/well. At the same time as the plating, 30 ng/ML M-CSF (macrophage-colony stimulating factor, R&D Systems) and 50 ng/mL RANKL (receptor activator of nuclear factor κ-B ligand, PeproTech Inc.) as inducers of differentiation into osteoclasts were added to all wells. Together with the differentiation inducers, urolithin A (1, 10, or 25 μM) was added. Culture was carried out by leaving the plate to stand in an incubator at 37° C. under 5% CO2 for 8 days. The medium in each well was removed, and the cells were fixed by being left to stand in […] Mildform for 10 minutes, followed by three times of washing with pure water. Thereafter, 50 μL of TRAP staining solution (SIGMA) was added to each well, and the plate was incubated in a shaded state for 1 hour at 37° C. The TRAP staining solution in each well was discarded, and the well was washed with pure water, followed by adding 50 μL of Mayer's hematoxylin solution thereto. The plated was left to stand for 2 minutes to perform nuclear staining. The plate was washed 10 times with pure water, and then dried for one or more days. The total number of multinucleated osteoclasts having three or more nuclei present on each well was counted. The stained image was scanned using a scanner (EPSON, GT-X970, 800 pixels/inch), and the stained area was measured using image analysis software Image J.
The same operation as in Example 1 was carried out except that urolithin A was not added.
The ratio of the stained area in each sample-addition group (Example 1) to the stained area in the sample-free group (Comparative Example 1) was calculated to determine the number of osteoclasts (relative value). […] The conditions marked with “*” in Table 2 and FIG. 1 are the conditions under which the significant differences were found compared to Comparative Example 1.
The same operation as in Example 1 was carried out except that urolithin B was used instead of urolithin A, and that urolithin B was added at 25 or 50 μM.
The same operation as in Example 1 was carried out except that urolithin B was not added.
The ratio of the stained area in each sample-addition group (Example 2) to the stained area in the sample-free group (Comparative Example 2) was calculated to determine the number of osteoclasts (relative value). […] The condition marked with “*” in Table 3 and FIG. 2 is the condition under which the significant difference was found compared to Comparative Example 2.

Structure (SMILES)	number of osteoclasts (relative value) [1]	number of osteoclasts (relative value) ([2]; 1 μM)	number of osteoclasts (relative value) ([2]; 10 μM)	Osteoclast differentiation (significance vs Comparative Example) ([2]; 10 μM)	number of osteoclasts (relative value) ([2]; 25 μM)	Osteoclast differentiation (significance vs Comparative Example) ([2]; 25 μM)	number of osteoclasts (relative value) ([2]; 50 μM)
O=c1oc2cc(O)ccc2c2ccc(O)cc12 [Urolithin A]	50% ± 5% (*)	88% ± 9%	49% ± 6% (*)	significantly inhibited	26% ± 4% (*)	significantly inhibited	–
O=c1oc2cc(O)ccc2c2ccccc12 [Urolithin B]	–	–	–	–	87% ± 13%	–	40% ± 5% (*)
